Entries after “also recorded” stand apart in the source; their conditions may differ. Like-named read-outs stand apart in the source and are kept apart here.
How the values were obtained:
[1] = tested on: healthy Western participants; conditions: 2022, cited from earlier work
[2] = Urine pharmacokinetics of aficamten, MD cohort; type: in vivo, human; conditions: for Ae(0–24) (amount excreted unchanged in urine) / CL renal: MD 5 mg, mean ± SD; for CL renal: human, urine, oral, 5 mg, read-out: CLr (renal clearance) (converted)
Method: Blood samples (4 mL) for plasma PK analysis of aficamten and its metabolites (mono-hydroxylated derivative CK-3834282 and its diastereomer CK-3834283) were collected into K2EDTA tubes in the SAD cohorts at the following time points: at pre-dose and at 0.25, 0.5, 1, 1.5, 2, 2.5, 3, 4, 6, 8, 12, 16, 24, 36, 48, 72, 96, and 216 h post-dose. In the MD cohort, blood samples were collected at pre-dose and at 0.25, 0.5, 1, 1.5, 2, 2.5, 3, 4, 6, 8, 12, and 16 h post-dose on day 1; at pre-dose and at 1.5 h post-dose on day 2, days 4–6, and day 9; at pre-dose on day 3, days 7–8, and days 10–13; at pre-dose and at 0.25, 0.5, 1, 1.5, 2, 2.5, 3, 4, 6, 8, 12, 16, 24, 36, 48, 72, 168, and 216 h post-dose on day 14. After collection, blood samples were centrifuged at 1700 g for 10 min at 4°C ± 2°C; plasma was aliquoted and stored at −80°C ± 20°C until analyzed. Meanwhile, samples for urine PK analysis of aficamten were collected in the MD cohort as follows: pre-dose, 0–4 h, 4–8 h, 8–12 h, and 12–24 h on days 1 and 14, respectively.
The samples were determined using a validated ultra-performance liquid chromatography-tandem mass spectrometry (UPLC-MS/MS) method. The detection was performed on a tandem mass spectrometer in the electrospray ionization (ESI)-positive mode. The multiple reactions monitoring (MRM) mode was applied to monitor the following ion transitions: m/z 338.2→213.2 for aficamten and m/z 354.3→ 229.3 for metabolite CK-3834282 and its diastereomer CK-3834283. Note that the diastereomers were separated from chromatography during the analysis. The calibration curves of the plasma and urine samples were linear, ranging from 1 to 500 ng/mL, and the intra- and inter-run accuracies (RE%) and precisions (RSD%) were within ±15%. In addition, the selectivity, matrix effect, extraction recovery, carryover, and stability at different conditions were also fully evaluated.
The urine PK parameters (MD cohort) were calculated as follows: CLR (renal clearance), Ae (amount of drug excreted unchanged in the urine), and Fe (percentage of drug excreted unchanged in the urine).

CYP2D6 = tested on: CYP2D6; parameters: method as in not given; conditions: in vitro; forms metabolites CK-3834282 and CK-3834283; ref not given; cited from earlier work

## CCc1nc(-c2ccc3c(c2)CC[C@H]3NC(=O)c2cnn(C)c2)no1 [aficamten]
[1]; 5 mg QD 14 days, healthy Western participants, CY 6011, ref Robertson et al., 2019, Malik et al.
  accumulation ratio (AR_AUC0-24): 4.71
[1]; 10 mg single dose, healthy Western participants, ref Malik et al.
  Cmax, mean (SD): 70.5 (69.0) ng/mL
[1]; CYP2D6-PM cohort vs non-poor metabolizers, CY 6011, ref Malik et al.
  effect of CYP2D6 poor metabolizer status on aficamten exposure: comparable; also recorded: did not affect the pharmacokinetics
[1]; SAD 10 mg, healthy Western participants, ref Malik et al.
  median tmax: 1.8 h
[1]; daily dosing, CY 6011, ref Robertson et al., 2019, Malik et al.
  time after which steady-state appeared evident: 14 days
[1]; healthy Western populations, FIH phase 1, ref Robertson et al., 2019, Malik et al.
  safety and tolerability: safe and well-tolerated
[2]; day 1, urine
  Ae(0–24) (amount excreted unchanged in urine): 3.2 ± 2.6 µg
  CL renal: 0.158 mL/min
[2]; day 14, urine
  Ae(0–24) (amount excreted unchanged in urine): 18.5 ± 8.0 µg
  CL renal: 0.228 mL/min
[2]; multiple doses of 5 mg
  drug excreted with urine in unchanged form: about 0.37%
CYP2D6
  CYP isoform involved in metabolism: CYP2D6, as the primary isoform involved in aficamten metabolism
